Reference: patent publication US8980933B2, “Combretastatin analogs for use in the treatment of cancer” (Universitat Bayreuth, priority 2010, dated 2015)
“And” between values parts separate entries of the source, which are not always exact repeats. Equal values may be shown once.

Key:
Solubility in water = assay type: physicochemical
[1] = test system: H12.1 germ cell tumor, 1411HP germ cell tumor, A2780 ovarian carcinoma, HT29 colon carcinoma, DLD1 colon carcinoma, HCT8 colon carcinoma; test: SRB-cytotoxicity assay in a panel of tumor cell lines; assay type: cell-based, human; conditions: H12.1, 1411HP
Experimental: The cytotoxic activity of 5b was established by standard colorimetric tests (SRB- and MTT-assays) against various tumor cell lines of different entities. For the SRB cytotoxicity assay, dose-response curves of the testicular germ cell tumor cell lines exposed to drug concentrations of 0.001-10 μM were established using the sulforhodamine-B (SRB) microcuiture colorimetric assay (Papazisis et al. Optimization of the sulforhodamine B colorimetric assay. J. Immunol. Methods 1997, 208, 151-158) and performed as described in: Müller et al. Failure of activation of caspase-9 induces a higher threshold for apoptosis and cisplatin resistance in testicular cancer. Cancer Res. 2003, 63, 513-521. Briefly, cells were seeded into 96-well plates on day 0, at cell densities previously determined to ensure exponential cell growth during the period of the experiment. On day 1, cells were treated with the drugs dissolved in medium to give the appropriate concentrations for indicated times and the percentage of surviving cells relative to untreated controls was determined on day 5.
The compounds 5b, 6b, 5f and 6f as well as the reference compound 25f (Wang et al.) were furthermore subjected to an SRB-cytotoxicity assay in a panel of tumor cell lines (H12.1 germ cell tumor, 1411HP germ cell tumor, A2780 ovarian carcinoma, HT29 colon carcinoma, DLD1 colon carcinoma, HCT8 colon carcinoma).

[2] = test system: HT-29 colon carcinoma cells; test: MTT cell growth inhibition, HT-29; assay type: cell-based, human; conditions: for IC50 concentration: combretastatin A-4 resistant HT-29 cells; for cytotoxicity (comparison): multi-drug resistant HT-29 colon cancer cells
Experimental: The effects of the compounds 5b, 6b, 8a, and 8e according to the present invention and of the reference compound 25f (Wang et al., J. Med. Chem. 2002, 45, 1697-1711) on cells of the following human tumor cell lines were evaluated: 518A2 melanoma, HL-60 leukemia, HT-29 colon carcinoma, KB-V1/Vbl cervical carcinoma, and MCF-7/Topo breast carcinoma.
The HL-60 cells were obtained from the German Collection of Biological Material (DSMZ), Braunschweig, Germany; the human 518A2 melanoma cells as well as the testicular germ cell tumor cell lines H12.1 and 1411HP were cultured in the department of oncology and hematology, Medical Faculty of the Martin-Luther University, Halle, Germany; the KBV1/Vbl and the MCF-7/Topo cells were obtained from the Institute of Pharmacy of the University Regensburg, Germany; and the colon HT-29 cells from the University Hospital Erlangen, Germany. The HL-60 and the HT-29 cells were grown in RPMI-1640 medium supplemented with 10% fetal calf serum (FCS), 100 IU/mL penicillin G, 100 μg/mL streptomycin sulfate, 0.25 μg/mL amphotericin B and 250 μg/mL gentamycine (all from Gibco, Egenstein, Germany). The 518A2 and the KB-V1/Vbl cells were cultured in Dulbecco's Modified Eagle Medium (D-MEM, Gibco) containing 10% FCS, 100 IU/mL penicillin G, 100 μg/mL streptomycin sulfate, 0.25 μg/mL amphotericin B and 250 μg/mL gentamycine. The MCF-7/Topo cells were grown in E-MEM medium (Sigma) supplemented with 2.2 g/L NaHCO3, 110 mg/L sodium pyruvate and 5% FCS. The cells were maintained in a moisture-saturated atmosphere (5% CO2) at 37° C. in 75-mL culture flasks (Nunc, Wiesbaden, Germany). They were serially passaged following trypsinisation by 0.05% trypsin/0.02% EDTA (PAA laboratories, Clbe, Germany). Mycoplasma contamination was routinely monitored, and only mycoplasma-free cultures were used.
MTT [3-(4,5-dimethylthiazol-2-yl)-2,5-diphenyltetrazolium bromide](ABCR) was used to identify viable cells which reduce it to a violet formazan (Mosmann, J. Immunol. Methods 1983, 65, 55-63). HL-60 leukemia cells (5×10^5/mL), and cells (5×10^4/mL) of 518A2 melanoma, HT-29 colon, KB-V1/Vbl cervix and MCF-7/Topo breast carcinoma were seeded out in 96-well tissue culture plates and cultured for 24 h. Incubation (5% CO2, 95% humidity, 37° C.) of the cells following treatment with the test compounds was continued for 24, 48 or 72 h. Blank and solvent controls were treated identically. MTT in phosphate buffered saline (5 mg/mL) was added to a final concentration of 0.05% (HL-60, 518A2) or 0.1% (HT-29, KB-V1/Vbl, MCF-7/Topo). After 2 h the formazan precipitate was dissolved in 10% sodium dodecylsulfate in DMSO containing 0.6% acetic acid in the case of the HL-60 cells. For the adherent 518A2, KB-V1/Vbl, MCF-7/Topo and HT-29 cells the microplates were swiftly turned to discard the medium before adding the solvent mixture. The microplates were gently shaken in the dark for 30 min and absorbance at 570 nm and 630 nm (background) was measured with an ELISA plate reader. All experiments were carried out in quadruplicate; the percentage of viable cells was calculated as the mean±SD with controls set to 100%.

518A2 cells = test: ROS generation, NBT assay, 518A2; assay type: cell-based, human; conditions: 50 μM, relative to untreated controls (1%), mean ± SD
Experimental: (§1) The generation of reactive oxygen species (ROS) in tumor cells is a sign of cellular stress resulting in severe damage of cellular components such as DNA, lipids or proteins.
(§2) For the NBT assay, HL-60 cells (0.5·10^6/mL) were plated in 96-well tissue culture plates, and test compounds were added after 24 h incubation at 37° C. to achieve a final concentration of 50 μM. […] After removal of the cell medium by centrifugation, the cells in each well were resuspended in 100 μL 0.1% NBT, and the plates were placed in the incubator for 1 h. The reduced NBT was solubilized with 100 μl 2 M KOH and 130 μl DMSO for 30 min. The absorbance was measured for each well at 630 and 405 nm (background) using an ELISA plate reader. The adherent 518A2 cells (0.5·10^4/mL) were seeded out in 96-well tissue culture plates after trypsinization and incubation for 24 h at 37° C. to allow attachment, then treated similarly, only that the medium was removed prior to incubation with NBT for 4 h. All experiments were carried out in quadruplicate.

HL-60 cells = test: ROS generation, NBT assay, HL-60; assay type: cell-based, human; conditions: 50 μM, relative to untreated controls (1%), mean ± SD
Experimental: as §1, §2

## COc1ccc(-c2c(-c3cc(Br)c(OC)c(OC)c3)ncn2C)cc1N [compound 6b, 1-methyl-5-(3-amino-4-methoxyphenyl)-4-(3-bromo-4,5-dimethoxyphenyl)-imidazole]
Solubility in water
  solubility: > 10000 µg/mL
[1]
  in vitro cytotoxicity compared to 25f: superior activity as compared to compound 25f
[2]
  IC50 concentration: single-digit nanomolar range
  cytotoxicity (comparison): able to overcome the drug resistance in these cancer cells in vitro
518A2 cells
  NBT Reduction [%] in 518A2 cells after 24 h: 1.5 ± 0.2%
HL-60 cells
  NBT Reduction [%] in HL-60 cells after 24 h: 3.8 ± 0.3%

## COc1ccc(-c2c(-c3cc(Cl)c(OC)c(OC)c3)ncn2C)cc1N [compound 5b, 1-methyl-5-(3-amino-4-methoxyphenyl)-4-(3-chloro-4,5-dimethoxyphenyl)-imidazole]
Solubility in water
  solubility: > 10000 µg/mL
[1]
  in vitro cytotoxicity compared to 25f: superior activity as compared to compound 25f
[2]
  IC50 concentration: single-digit nanomolar range
  cytotoxicity (comparison): able to overcome the drug resistance in these cancer cells in vitro
518A2 cells
  NBT Reduction [%] in 518A2 cells after 24 h: 1.8 ± 0.2%
HL-60 cells
  NBT Reduction [%] in HL-60 cells after 24 h: 4.4% and 4.4 ± 0.6%
